Laboratory results taken from ChEMBL document CHEMBL1201862, “PubChem BioAssay data set” (2004).
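Values below derive from 48-hour exposures of cells grown in 96-well plates, with endpoints linearly interpolated between the two concentrations bracketing the appropriate inhibition level. GI50 is the concentration that inhibits growth by half.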 Activity calls are given as the source filed them. Rule as the data show it: active = GI50 up to about 1.1 µM and inactive = higher.

Assays:
Test in all cases: inhibition of tumour cell growth, NCI panel, 48 h
786-0 = tested on: 786-0
A498 = tested on: A498
ACHN = tested on: ACHN
CAKI-1 = tested on: CAKI-1
EKVX = tested on: EKVX
HCC 2998 = tested on: HCC 2998
IGROV-1 = tested on: IGROV-1
KM12 = tested on: KM12
MOLT-4 = tested on: MOLT-4
NCI-H522 = tested on: NCI-H522
OVCAR-8 = tested on: OVCAR-8
SF-295 = tested on: SF-295
U-251 = tested on: U-251
NCI-H226 = tested on: NCI-H226
RXF 393 = tested on: RXF 393

Measured: GI50

COc1ccc(C(=O)C(CO)Oc2ccccc2OC)cc1OC (centres undefined)
inactive: 786-0 > 100 µM | A498 > 100 µM | ACHN > 100 µM | CAKI-1 > 100 µM | EKVX > 100 µM | HCC 2998 > 100 µM | IGROV-1 > 100 µM | KM12 > 100 µM | MOLT-4 > 100 µM | NCI-H522 91 µM | OVCAR-8 > 100 µM | SF-295 > 100 µM | U-251 > 100 µM

O=C(CSC(=S)N1CCCCC1)Nc1nc2c(s1)CCCC2
inactive: 786-0 48.3 µM | A498 > 100 µM | ACHN 50 µM | HCC 2998 48.3 µM | IGROV-1 > 100 µM | KM12 57.4 µM | MOLT-4 11 µM | NCI-H226 43.4 µM | NCI-H522 29.5 µM | OVCAR-8 58.1 µM | SF-295 16.4 µM | U-251 29.2 µM

C=C(C)C12CC3CC(/C(=N/O)C(C1)/C3=N\O)[C@@]2(C)O (some centres undefined)
inactive: 786-0 > 100 µM | ACHN > 100 µM | CAKI-1 > 100 µM | EKVX > 100 µM | HCC 2998 > 100 µM | IGROV-1 > 100 µM | MOLT-4 > 100 µM | NCI-H226 > 100 µM | NCI-H522 > 100 µM | OVCAR-8 > 100 µM | RXF 393 > 100 µM | SF-295 > 100 µM | U-251 > 100 µM

COc1ccc(-c2oc(/C=N/NC(N)=S)c([N+](=O)[O-])c2-c2ccc(OC)c(OC)c2)cc1OC
inactive: 786-0 27.1 µM | ACHN 18.5 µM | CAKI-1 32.1 µM | EKVX 22.8 µM | IGROV-1 28.3 µM | NCI-H226 28.1 µM | NCI-H522 23.6 µM | OVCAR-8 23.9 µM | RXF 393 13.2 µM | SF-295 20.7 µM

C/C(=C\CBr)CCC(Br)C(C)(C)Cl (centres undefined)
inactive: 786-0 > 100 µM | ACHN > 100 µM | CAKI-1 > 100 µM | IGROV-1 > 100 µM | KM12 > 100 µM | MOLT-4 > 100 µM | NCI-H226 > 100 µM | NCI-H522 > 100 µM | OVCAR-8 > 100 µM | RXF 393 > 100 µM | SF-295 > 100 µM | U-251 > 100 µM

CCCCc1c2c(nc3c1CC/C(=C\c1ccc([N+](=O)[O-])cc1)C3=O)CCCC2
inactive: 786-0 1.43 µM | ACHN 1.78 µM | EKVX 11.4 µM | HCC 2998 1.78 µM | IGROV-1 1.8 µM | KM12 1.7 µM | MOLT-4 1.77 µM | NCI-H226 2.28 µM | NCI-H522 1.51 µM | OVCAR-8 1.88 µM | RXF 393 1.3 µM | SF-295 2.1 µM | U-251 1.59 µM

COc1cc(Oc2c(O)c(C)c(OC)c(C(C)=O)c2O)c(C(C)=O)c(O)c1C
inactive: 786-0 60.7 µM | ACHN 46.5 µM | CAKI-1 60.3 µM | HCC 2998 59 µM | IGROV-1 67.3 µM | KM12 65.3 µM | NCI-H226 85.9 µM | NCI-H522 12.9 µM | OVCAR-8 51.6 µM | RXF 393 61.9 µM | SF-295 > 100 µM | U-251 44.2 µM

COc1cc(C(=O)C/C(CCC(=O)Nc2ccc(Cl)cc2C)=N/NC(=O)C(N)=O)ccc1O
inactive: 786-0 > 100 µM | A498 > 100 µM | ACHN > 100 µM | CAKI-1 > 100 µM | EKVX > 100 µM | HCC 2998 > 100 µM | IGROV-1 > 100 µM | KM12 > 100 µM | MOLT-4 > 100 µM | NCI-H226 > 100 µM | NCI-H522 > 100 µM | OVCAR-8 > 100 µM | SF-295 > 100 µM | U-251 > 100 µM
